# Experimental data published in US6593342B1, “Pharmaceutical compositions comprising 2-quinolones” (Laboratoire L. Lafon, priority 1998, dated 2003).
# Experiments:
# U-87MG = assay: MTT test, U-87MG; assay type: cell-based; settings: Homo sapiens, 10^−5 M, 72 hours, control = 100%, mean ± SEM, read-out: average optical density (MTT), percentage relative to control
# Experimental: (§1) The influence of the compounds of formulae (I) and (Ia) on non-clonogenic cells was evaluated with the aid of the MTT calorimetric test.
# (§2) The principle of the MTT test is based on the mitochondrial reduction, by the metabolically active live cells, of the yellow-colored product MTT (3-(4,5-dimethylthiazol-2-yl)-2,5-diphenyltetrazolium bromide) to a blue-colored product, formazan. The amount of formazan thus obtained is directly proportional to the amount of live cells present in the culture well(s). This amount of formazan is measured by spectrophotometry.
# (§3) The cell lines are maintained as a monolayer culture at 37° C. in stoppered culture dishes containing MEM 25 MM HEPES (Minimum Essential Medium) base medium. This medium is suited to the growth of a range of various mammalian diploid or primary cells. This medium is then supplemented with:
# (§4) an amount of 5% of FCS (Foetal Calf Serum) decomplemented at 56° C. for 1 hour,
# (§5) 0.6 mg/ml of L-glutamine,
# (§6) 200 μg/ml of streptomycin,
# (§7) The 12 human cancer cell lines which were used were obtained from the American Type Culture Collection (ATCC, Rockville, Md., USA). These 12 cell lines are:
# (§8) U-373MG (code ATCC: HTB-17) and U-87MG (code ATCC: HTB-14) which are two glioblastomas,
# (§9) Experimentally: 100 μl of a cell suspension containing 20 000 to 50 000 (depending on the cell type used) cells/ml of culture medium are inoculated in 96-well flat-bottomed multi-well plates and are incubated at 37° C., under an atmosphere comprising 5% CO2 and 70% humidity. After incubation for 24 hours, the culture medium is replaced with 100 μl of fresh medium containing either the various test compounds at concentrations ranging from 10^−5 to 10^−10 M or the solvent used to dissolve the test products (control condition). After incubation for 72 hours under the above conditions, the culture medium is replaced with 100 μl of a yellowish solution of MTT dissolved at a rate of 1 mg/ml in RPMI 1640. The microplates are reincubated for 3 hours at 37° C. and are then centrifuged for 10 minutes at 400×g. The yellowish solution of MTT is removed and the blue formazan crystals formed in the cell are dissolved in 100 μl of DMSO. The microplates are then shaken for 5 minutes. The intensity of the resulting blue coloration, and thus of the conversion of the yellow product MTT into blue formazan by the cells that are still alive at the end of the experiment, is quantified by spectrophotometry using a Dynatech Immunoassay System machine at wavelengths of 570 nm and 630 nm corresponding, respectively, to the maximum absorption wavelengths of formazan and to the background noise. Software incorporated in the spectrophotometer calculates the average optical density values and the standard deviation (SD) and standard error of mean (SEM) values.
# (§10) By way of example, the results of the average optical density, expressed as a percentage relative to the average optical density measured under the control condition (set equal to 100%), obtained at a concentration of 10^−5 M on the 12 abovementioned tumor cell lines are given in Table II.
# U-373MG = assay: MTT test, U-373MG; assay type: cell-based; settings: Homo sapiens, U373 MG, 10^−5 M, 72 hours, control = 100%, mean ± SEM, read-out: average optical density (MTT), percentage relative to control
# Experimental: as §1, §2, §3, §4, §5, §6, §7, §8, §9, §10
# SW1088 = assay: MTT test, SW1088; assay type: cell-based; settings: Homo sapiens, 10^−5 M, 72 hours, control = 100%, mean ± SEM, read-out: average optical density (MTT), percentage relative to control
# Experimental: as §1, §2, §3, §4, §5, §6, §7
# SW1088 (code ATCC: HTB-12) which is an astrocytoma,
# as §9, §10
# T24 = assay: MTT test, T24; assay type: cell-based; settings: Homo sapiens, T-24, 10^−5 M, 72 hours, control = 100%, mean ± SEM, read-out: average optical density (MTT), percentage relative to control
# Experimental: as §1, §2, §3, §4, §5, §6, §7
# (§11) J82 (code ATCC: HTB-1) and T24 (code ATCC: HTB-4) which are two bladder cancers,
# as §9, §10
# J82 = assay: MTT test, J82; assay type: cell-based; settings: Homo sapiens, 10^−5 M, 72 hours, control = 100%, mean ± SEM, read-out: average optical density (MTT), percentage relative to control
# Experimental: as §1, §2, §3, §4, §5, §6, §7, §11, §9, §10
# HCT-15 = assay: MTT test, HCT-15; assay type: cell-based; settings: Homo sapiens, 10^−5 M, 72 hours, control = 100%, mean ± SEM, read-out: average optical density (MTT), percentage relative to control
# Experimental: as §1, §2, §3, §4, §5, §6, §7
# (§12) HTC-15 (code ATCC: CCL-225) and LoVo (code ATCC: CCL-229) which are two colorectal cancers,
# as §9, §10
# LoVo = assay: MTT test, LoVo; assay type: cell-based; settings: Homo sapiens, 10^−5 M, 72 hours, control = 100%, mean ± SEM, read-out: average optical density (MTT), percentage relative to control
# Experimental: as §1, §2, §3, §4, §5, §6, §7, §12, §9, §10
# MCF7 = assay: MTT test, MCF7; assay type: cell-based; settings: Homo sapiens, 10^−5 M, 72 hours, control = 100%, mean ± SEM, read-out: average optical density (MTT), percentage relative to control
# Experimental: as §1, §2, §3, §4, §5, §6, §7
# (§13) T-47D (code ATCC: HTB-133) and MCF7 (code ATCC: HTB-22) which are two breast cancers,
# as §9, §10
# T-47D = assay: MTT test, T-47D; assay type: cell-based; settings: Homo sapiens, T47D, 10^−5 M, 72 hours, control = 100%, mean ± SEM, read-out: average optical density (MTT), percentage relative to control
# Experimental: as §1, §2, §3, §4, §5, §6, §7, §13, §9, §10
# A549 = assay: MTT test, A549; assay type: cell-based; settings: Homo sapiens, 10^−5 M, 72 hours, control = 100%, mean ± SEM, read-out: average optical density (MTT), percentage relative to control
# Experimental: as §1, §2, §3, §4, §5, §6, §7
# (§14) A549 (code ATCC: CCL-185) and A-427 (code ATCC: HTB-53) which are two non-small-cell lung cancers,
# as §9, §10
# A-427 = assay: MTT test, A-427; assay type: cell-based; settings: Homo sapiens, 10^−5 M, 72 hours, control = 100%, mean ± SEM, read-out: average optical density (MTT), percentage relative to control
# Experimental: as §1, §2, §3, §4, §5, §6, §7, §14, §9, §10
# PC-3 = assay: MTT test, PC-3; assay type: cell-based; settings: Homo sapiens, 10^−5 M, 72 hours, control = 100%, mean ± SEM, read-out: average optical density (MTT), percentage relative to control
# Experimental: as §1, §2, §3, §4, §5, §6, §7
# PC-3 (code ATCC: CRL-1435) which is a prostate cancer.
# as §9, §10
# [1] = Determination of the maximum tolerated dose (MTD); settings: mouse, in vivo, ip; B6D2F1/Jico mice; single intraperitoneal administration, 2.5 to 160 mg/kg; survival over 14 days
# Experimental: 3.—Determination of the Maximum Tolerated Dose (MTD):
# The evaluation of the maximum tolerated dose was carried out on 4- to 6-week-old B6D2F1/Jico mice. The compounds were administered intraperitoneally at increasing doses graduating from 2.5 to 160 mg/kg. The value of the MTD (expressed in mg/kg) is determined from the observation of the survival rate of the animals over a 14-day period after a single administration of the product under consideration. The weight change of the animals is also monitored during this period. When the value of the MTD is greater than 160 mg/kg, the MTD value is likened to 160 mg/kg by default.
# The results of the estimation of the maximum tolerated dose (MTD) are collated in the following table: […]
melting point [°C],SMILES,viability at 10 µM (U-87MG) [%],viability at 10 µM (U-373MG) [%],viability at 10 µM (SW1088) [%],viability at 10 µM (T24) [%],viability at 10 µM (J82) [%],viability at 10 µM (HCT-15) [%],viability at 10 µM (LoVo) [%],viability at 10 µM (MCF7) [%],viability at 10 µM (T-47D) [%],viability at 10 µM (A549) [%],viability at 10 µM (A-427) [%],viability at 10 µM (PC-3) [%],MTD at 14 day [1] [mg/kg]
54 to 55,COc1ccc(-c2cc3c(OC)cc(OC)cc3nc2OCCCN(C)C)cc1 [Compound 22a],,,,,,,,,,,,,
243 to 244,"COc1ccc2[nH]c(=O)c(-c3ccccc3)cc2c1 [Compound 44, 6-Methoxy-3-phenyl-1,2-dihydro-2-quinolinone]",,,,,,,,,,,,,
49 to 50,"COc1ccc(-c2cc3c(OC)cc(OC)cc3nc2OCCN(C)C)cc1 [Compound 23a, N,N-Dimethyl-2-[5,7-dimethoxy-3-(4-methoxyphenyl)-2-quinolyl]oxy-1-ethanamine]",,,,,,,,,,,,,
106 to 107,"COc1ccc(-c2cc3c(OC)cc(OC)cc3nc2OC)cc1 [Compound 7a, 2,5,7-Trimethoxy-3-(4-methoxyphenyl)quinoline]",,,,,,,,,,,,,
,"COc1ccc(-c2cc3c(OC)cc(OC)cc3nc2S)cc1 [CRL8271, 5,7-Dimethoxy-3-(4-methoxhphenyl)-1,2-dihydro-2-quinolinethione]",78.5 ± 1.7,96.2 ± 1.6,102.2 ± 0.5,107 ± 2.3,75.9 ± 1.3,87.2 ± 2.8,94.2 ± 2.8,106 ± 2.3,90.9 ± 1.7,94.2 ± 4.7,84.1 ± 1.9,107 ± 2.7,> 160
,"COc1ccc(-c2cc3c(OC)cc(OC)cc3n(CC#N)c2=O)cc1 [CRL8255, [5,7-Dimethoxy-3-(4-methoxyphenyl)-2-oxo-1,2-dihydro-1-quinolinyl]acetonitrile]",72.5 ± 1.1,68.5 ± 2.7,67.5 ± 1.5,79.5 ± 2.2,36.2 ± 0.5,58.7 ± 3,56.9 ± 1.1,71.5 ± 1.4,73.7 ± 3.3,79.1 ± 2.1,76.3 ± 1.5,77.7 ± 1.2,> 160
212 to 213,"Cc1ccc2[nH]c(=O)c(-c3ccccc3)cc2c1 [Compound 48, 6-Methyl-3-phenyl-1,2-dihydro-2-quinolinone]",,,,,,,,,,,,,
146 to 147,"CCN(CC)C(=O)COc1nc2cc(OC)cc(OC)c2cc1-c1ccc(OC)cc1 [Compound 18a, N,N-Diethyl-2-([5,7-dimethoxy-3-(4-methoxyphenyl)-2-quinolinyl]oxy)acetamide]",,,,,,,,,,,,,
,"Cn1c(=O)c(-c2ccc(O)cc2)cc2c(O)cc(O)cc21 [CRL8321, 5,7-Dihydroxy-3-(4-hydroxyphenyl)-1-methyl-1,2-dihydro-2-quinolinone]",96.5 ± 1.2,97.1 ± 2.4,97.2 ± 1.8,103 ± 1.7,88.6 ± 0.9,118 ± 1.6,108 ± 1.1,96.6 ± 0.9,91.5 ± 1.2,99.4 ± 1.3,107 ± 1.4,102 ± 3.1,> 160
149 to 150,"COc1ccc(-c2cc3c(OC)cc(OC)cc3nc2OCC#N)cc1 [Compound 19a, 2-([5,7-Dimethoxy-3-(4-methoxyphenyl)-2-quinolinyl]oxy)acetonitrile]",,,,,,,,,,,,,
,"COc1cc(OC)c2cc(-c3ccccc3)c(O)nc2c1 [CRL8330, 5,7-Dimethoxy-3-phenyl-1,2-dihydro-2-quinolinone]",86.6 ± 0.7,75.5 ± 3.7,73.3 ± 1.8,57.4 ± 2.3,70.5 ± 2.4,94.7 ± 2.1,59.9 ± 4.2,87.2 ± 3,77.6 ± 3,76.3 ± 2.4,59.8 ± 1,48.5 ± 2.1,> 160
144 to 145,COc1cc(OC)c2cc(-c3ccc(OS(=O)(=O)C(F)(F)F)cc3)c(=O)n(C)c2c1 [Compound 45],,,,,,,,,,,,,
,"COc1ccc(-c2cc3c(OC)cc(OC)cc3n(C)/c2=N\Nc2ccccn2)cc1 [CRL8266, 5,7-Dimethoxy-3-(4-methoxyphenyl)-1-methyl-1,2-dihydro-2-quinolinone-2-(2-pyridyl)hydrazone]",64.4 ± 1.2,66.3 ± 1.6,68.4 ± 1.6,84.6 ± 3,31.2 ± 0.7,76.1 ± 1.5,71.3 ± 4.5,46.3 ± 2.6,25 ± 4,61.6 ± 3.5,45.2 ± 2.2,67.2 ± 0.9,> 160
,"COc1ccc(-c2cc3c(OC)cc(OC)cc3n(CC(=O)O)c2=O)cc1 [CRL8317, 2-[5,7-Dimethoxy-3-(4-methoxyphenyl)-2-oxo-1,2-dihydro-1-quinolinyl]acetic Acid]",91 ± 4.1,91.2 ± 1.9,103 ± 2.3,91.4 ± 4.3,83.6 ± 1.8,104 ± 2.6,86.8 ± 2.8,96 ± 2.1,95 ± 2.5,94.7 ± 2.2,91.3 ± 2,97.9 ± 1.1,> 160
114 to 115,"COc1ccc(-c2cc3c(OC)cc(OC)cc3nc2OCC(=O)OCc2ccccc2)cc1 [Compound 13a, Benzyl 2-([5,7-Dimethoxy-3-(4-methoxyphenyl)-2-quinolinyl]oxy)acetate]",,,,,,,,,,,,,
95 to 96,"CCOC(=O)COc1nc2cc(OC)cc(OC)c2cc1-c1ccc(OC)cc1 [Compound 11a, Ethyl 2-([5,7-Dimethoxy-3-(4-methoxyphenyl)-2-quinolinyl]oxy)acetate]",,,,,,,,,,,,,
,"COc1cc(OC)c2cc(-c3ccc(O)cc3)c(O)nc2c1 [CRL8284, 5,7-Dimethoxy-3-(4-hydroxyphenyl)-1,2-dihydro-2-quinolinone]",88.1 ± 2.2,87.7 ± 1.4,78.3 ± 1.6,68.5 ± 0.9,48.8 ± 0.7,77.3 ± 1.8,102 ± 1.3,66.6 ± 2.7,89.9 ± 1.9,91.7 ± 1.6,96 ± 2,83.8 ± 1,> 160
